We go through twelve compounds from ChEMBL document CHEMBL3120068, “Identification of diverse natural products as falcipain-2 inhibitors through structure-based virtual screening” (Bioorg Med Chem Lett, 2014).

Some results are limits rather than exact numbers.

The term IC50 denotes the concentration that inhibits the measured activity by half.

Test [1] is described as follows: Inhibition of recombinant Plasmodium falciparum falcipain 2 after 30 mins by fluorescence assay.
The subject of test [2] is Plasmodium falciparum. Nature of the test: Antiplasmodial activity against chloroquine-resistant blood stage Plasmodium falciparum Dd2 after 72 hrs by SYBR Green I-based fluorescence assay. In kind it is functional, organism-based. As to conditions: Dd2, 72 h.
Test [3] concerns Plasmodium falciparum. Kind of test: Antiplasmodial activity against chloroquine-sensitive blood stage Plasmodium falciparum 3D7 after 72 hrs by SYBR Green I-based fluorescence assay. It counts as functional, organism-based. As to conditions: 3D7, 72 h.

Consider `CCCCOC(=O)[C@H]1c2c(/C=C/C(=O)O[C@H](Cc3ccc(O)c(O)c3)C(=O)O)ccc(O)c2O[C@@H]1c1ccc(O)c(O)c1`, for which the IC50 in test [1] worked out at 3.18 µM.

For `O=C1c2c(O)cc(O)cc2O[C@H](c2cc(O)c(O)c(O)c2)[C@@H]1O`, the IC50 in the test on Plasmodium falciparum [2] was more than 50 µM; in the test on Plasmodium falciparum [3], 75.5 µM; in test [1], 44.8 µM.

Consider `O=C1c2c(O)cc(O)cc2O[C@@]2(c3ccc(O)cc3)Oc3cc(O)c4c(c3[C@]12O)O[C@H](c1ccc(O)cc1)CC4`, for which the IC50 in the test with Plasmodium falciparum [2] was 66.7 µM; in the test on Plasmodium falciparum [3], 60.6 µM; in test [1], 5.23 µM.

As to `CCOC(=O)c1c(O)cc(O)c2c1OC(c1ccc(O)cc1)CC2` (configuration not stated), the IC50 in the test with Plasmodium falciparum [2] was 86.8 µM; in the test with Plasmodium falciparum [3], 60.3 µM; in test [1] it was 9.12 µM.

As for `COc1cc(O[C@@H]2O[C@H](CO[C@@H]3OC[C@@H](O)[C@H](O)[C@H]3O)[C@@H](O)[C@H](O)[C@H]2O)c2c(=O)cc(-c3ccc(O)cc3)oc2c1`, the concentration for half-maximal inhibition (IC50) is more than 500 µM in the test with Plasmodium falciparum [2], more than 250 µM with Plasmodium falciparum [3] and 17.1 µM in test [1].

For `COc1cc(-c2oc3cc(O)cc(O)c3c(=O)c2O[C@@H]2O[C@H](COC(C)=O)[C@@H](O)[C@H](O)[C@H]2O)cc(OC)c1O`, the IC50 in test [1] was determined as 68.2 µM.

`C[C@@H]1CC[C@H]2[C@@H](C)C(=O)O[C@@H]3O[C@@]4(C)CC[C@@H]1[C@]32OO4` [ARTEMISININ]: the IC50 came out at 0.049 µM with Plasmodium falciparum [2] and 0.04 µM in the test with Plasmodium falciparum [3].

As to `COC(=O)[C@@H](Cc1ccc(O)c(O)c1)OC(=O)/C=C/c1ccc(O)c2c1[C@H](C(=O)OC)[C@@H](c1ccc(O)c(O)c1)O2` [DIMETHYL LITHOSPERMATE], the 50% inhibitory concentration (IC50) in test [1] was 3.77 µM.

Take `CC(C)C[C@H](NC(=O)[C@H]1O[C@@H]1C(=O)O)C(=O)NCCCCN=C(N)N` [E-64]: the IC50 in test [1] is 0.017 µM.

Regarding `C[C@@H]1O[C@@H](O[C@H]2[C@H](O)[C@@H](COC(=O)/C=C/c3ccc(O)c(O)c3)O[C@H]3OC[C@H](c4ccc(O)c(O)c4)O[C@@H]32)[C@H](O)[C@H](O)[C@H]1O` [ISOCRENATOSIDE], the results for the IC50 (with Plasmodium falciparum [2]; in the test on Plasmodium falciparum [3]; in test [1]) were 93.1 µM, more than 50 µM and 53.1 µM, respectively.

Regarding `O=c1c(O[C@@H]2O[C@H](CO)[C@@H](O)[C@H](O)[C@H]2O)c(-c2ccc(O)c(O)c2)oc2cc(O)cc(O)c12` [ISOQUERCETIN], the 50% inhibitory concentration (IC50) turned out to be 4.05 µM in the test with Plasmodium falciparum [2], 5.54 µM with Plasmodium falciparum [3] and 15.7 µM in test [1].

`O=C1c2c(O)cc(O)cc2O[C@H](c2ccc(O)c(O)c2)[C@H]1O` [TAXIFOLIN]: the half-inhibitory concentration (IC50) in the test on Plasmodium falciparum [2] amounted to 55 µM; in the test with Plasmodium falciparum [3], 48.2 µM; in test [1], 56.9 µM.
